Results as given in patent publication US4831026A, “2-oxa-isocephem compounds, compositions containing same and processes of using” (Otsuka Pharmaceutical Co., Ltd., priority 1985, dated 1989).
Like-named read-outs stand apart in the source and are kept apart here.

Key:
K. pneumoniae NCTC-9632 = test: Antimicrobial activity test: MIC by the agar plate dilution method, K. pneumoniae NCTC-9632; format: cell-based; details: inoculum 1×10^6 cells/ml
Description: (§1) In order to investigate the in vitro activity of the under-mentioned compounds against various bacteria, the minimal inhibitory concentration (MIC) values were determined by the agar plate dilution method [see Chemotherapy, 22, 1126-1128 (1974)].
(§2) Each test inoculum was adjusted to 1×10^6 cells/ml (O.D., 600 mμ: 0.07-0.16).

P. aeruginosa NCTC-10490 = test: Antimicrobial activity test: MIC by the agar plate dilution method, P. aeruginosa NCTC-10490; format: cell-based; details: inoculum 1×10^6 cells/ml
Description: as §1, §2

S. aureus FDA-209-p = test: Antimicrobial activity test: MIC by the agar plate dilution method, S. aureus FDA-209-p; format: cell-based, Staphylococcus aureus; details: inoculum 1×10^6 cells/ml
Description: as §1, §2

P. mirabilis 1287 = test: Antimicrobial activity test: MIC by the agar plate dilution method, P. mirabilis 1287; format: cell-based
Description: as §1, §2

E. coli No. 29 = test: Antimicrobial activity test: MIC by the agar plate dilution method, E. coli No. 29; format: cell-based
Description: as §1, §2

S. marcescens IFO-12648 = test: Antimicrobial activity test: MIC by the agar plate dilution method, S. marcescens IFO-12648; format: cell-based
Description: as §1, §2

M. morganii ATCC-25830 = test: Antimicrobial activity test: MIC by the agar plate dilution method, M. morganii ATCC-25830; format: cell-based; details: inoculum 1×10^6 cells/ml
Description: as §1, §2

[1] = P. mirabilis 1287, inoculum 1×10^6 cells/ml
[2] = E. coli No. 29, inoculum 1×10^6 cells/ml
[3] = S. marcescens IFO-12648, inoculum 1×10^6 cells/ml

Work on “7-[2-(2-Chloroacetamidothiazol-4-yl)-2-cyclopentyloxyiminoacetamido]-3-[(1,3,4-thiadiazol-2-yl)thiomethyl]-Δ^3 -O-2-isocephem-4-carboxylic acid (syn-isomer) [Example 26]” yielded an MIC (K. pneumoniae NCTC-9632) of 0.2 µg/mL, an MIC (P. aeruginosa NCTC-10490) of 0.39 µg/mL and an MIC (S. aureus FDA-209-p) of 0.2 µg/mL. The MIC (P. mirabilis 1287; [1]) was at most 0.025 µg/mL, the MIC (E. coli No. 29; [2]) was 0.05 µg/mL and the MIC (S. marcescens IFO-12648) was 0.39 µg/mL. For the same substance, the MIC (M. morganii ATCC-25830) was 0.05 µg/mL.

“Benzyl 7-[2-(2-trifluoroacetamidothiazol-4-yl)-2-methoxyiminoacetamido]-3-[(carbamoyloxy)methyl]-Δ^3 -O-2-isocephem-4-carboxylate (syn-isomer) [Example 4]” was tested, and the MIC (K. pneumoniae NCTC-9632) was 0.1 µg/mL, the MIC (P. aeruginosa NCTC-10490) was 6.25 µg/mL and the MIC (S. aureus FDA-209-p) was 0.78 µg/mL. It also gave an MIC (P. mirabilis 1287; [1]) of at most 0.025 µg/mL, an MIC (E. coli No. 29; [2]) of 0.05 µg/mL and an MIC (S. marcescens IFO-12648; [3]) of 0.2 µg/mL. It also gave an MIC (M. morganii ATCC-25830) of at most 0.025 µg/mL.

“7-[2-(2-Aminothiazol-4-yl)-2-(2-chloroethoxy)iminoacetamido]-3-[(1,3,4-thiadiazol-2-yl)thiomethyl]-Δ^3 -O-2-isocephem-4-carboxylic acid (syn-isomer) [No. 9]” was tested, and the MIC (K. pneumoniae NCTC-9632) was 0.39 µg/mL, the MIC (P. aeruginosa NCTC-10490) was 0.78 µg/mL and the MIC (S. aureus FDA-209-p) was 0.05 µg/mL. The MIC (P. mirabilis 1287) was 0.39 µg/mL, the MIC (E. coli No. 29; [2]) was 0.2 µg/mL and the MIC (S. marcescens IFO-12648) was 0.78 µg/mL. For the same substance, the MIC (M. morganii ATCC-25830) was 0.78 µg/mL.

For “Benzyl 7-[2-(2-chloroacetamidothiazol-4-yl)-2-cyclopentyloxyiminoacetamido]-3-[(1,3,4-thiadiazol-2- yl)thiomethyl]-Δ^3 -O-2-isocephem-4-carboxylate (syn-isomer) [Example 25]”, the MIC (K. pneumoniae NCTC-9632) was 0.05 µg/mL, the MIC (P. aeruginosa NCTC-10490) was 0.78 µg/mL and the MIC (S. aureus FDA-209-p) was 1.56 µg/mL. It also gave an MIC (P. mirabilis 1287; [1]) of at most 0.025 µg/mL, an MIC (E. coli No. 29; [2]) of at most 0.025 µg/mL and an MIC (S. marcescens IFO-12648; [3]) of 0.2 µg/mL. It also gave an MIC (M. morganii ATCC-25830) of at most 0.025 µg/mL.

With “7-[2-(2-Aminothiazol-4-yl)-2-[(3-butenyl)oxyimino]acetamido]-3-[(1,3,4-thiadiazol-2-yl)thiomethyl-]-Δ^3 -O-2-isocephem-4-carboxylic acid trifluoroacetate (syn-isomer) [Example 40]” the MIC (K. pneumoniae NCTC-9632) was 3.13 µg/mL, the MIC (P. aeruginosa NCTC-10490) was 25 µg/mL and the MIC (S. aureus FDA-209-p) was 6.25 µg/mL. For the same substance, the MIC (P. mirabilis 1287; [1]) was 6.25 µg/mL, the MIC (E. coli No. 29) was 3.13 µg/mL and the MIC (S. marcescens IFO-12648; [3]) was 12.5 µg/mL. The MIC (M. morganii ATCC-25830) was 3.13 µg/mL.

For “1-Acetoxyethyl 7-[2-(2-aminothiazol-4-yl)-2-methoxyiminoacetamido]-3-[(1,3,4-thiadiazol-2-yl)thiomethyl]-Δ^3 -O-2-isocephem-4-carboxylate (syn-isomer) [Example 13]”, the MIC (K. pneumoniae NCTC-9632) was 0.78 µg/mL, the MIC (P. aeruginosa NCTC-10490) was 0.78 µg/mL and the MIC (S. aureus FDA-209-p) was 0.39 µg/mL. The MIC (P. mirabilis 1287; [1]) was 0.1 µg/mL, the MIC (E. coli No. 29) was 0.39 µg/mL and the MIC (S. marcescens IFO-12648) was 0.78 µg/mL. It also gave an MIC (M. morganii ATCC-25830) of 0.39 µg/mL.

With “Benzhydryl 7-[2-(2-tritylaminothiazol-4-yl)-2-propargyloxyiminoacetamido]-3-[(1,3,4-thiadiazol-2-yl)thiomethyl]-Δ^3 -O-2-isocephem-4-carboxylate (syn-isomer) [Example 21]” the MIC (K. pneumoniae NCTC-9632) was 0.2 µg/mL, the MIC (P. aeruginosa NCTC-10490) was 3.13 µg/mL and the MIC (S. aureus FDA-209-p) was 3.13 µg/mL. It also gave an MIC (P. mirabilis 1287; [1]) of at most 0.025 µg/mL, an MIC (E. coli No. 29; [2]) of 0.1 µg/mL and an MIC (S. marcescens IFO-12648) of 0.39 µg/mL. For the same substance, the MIC (M. morganii ATCC-25830) was 0.05 µg/mL.

“7-[2-(2-Chloroacetamidothiazol-4-yl)-2-methoxyiminoacetamido]-3-[(1,4,5,6-tetrahydro-4-methyl-5,6-dioxo-1,2,4-triazin-3-yl)thiomethyl]-Δ^3 -O-2-isocephem-4-carboxylic acid (syn-isomer) [Example 17]” was tested, and the MIC (K. pneumoniae NCTC-9632) was at most 0.025 µg/mL, the MIC (P. aeruginosa NCTC-10490) was 6.25 µg/mL and the MIC (S. aureus FDA-209-p) was 0.2 µg/mL. For the same substance, the MIC (P. mirabilis 1287; [1]) was at most 0.025 µg/mL, the MIC (E. coli No. 29; [2]) was at most 0.025 µg/mL and the MIC (S. marcescens IFO-12648; [3]) was at most 0.025 µg/mL. The MIC (M. morganii ATCC-25830) was at most 0.025 µg/mL.

“Benzhydryl 7-[2-(2-tritylaminothiazol-4-yl)-2cyanomethyloxyiminoacetamido-]-3-[(1,3,4-thiadiazol-2-yl)thiomethyl]-Δ^3 -O-2-isocephem-4-carboxylate (syn-isomer) [Example 41]” was tested, and the MIC (K. pneumoniae NCTC-9632) was 0.39 µg/mL, the MIC (P. aeruginosa NCTC-10490) was 0.78 µg/mL and the MIC (S. aureus FDA-209-p) was 0.39 µg/mL. It also gave an MIC (P. mirabilis 1287; [1]) of 0.2 µg/mL, an MIC (E. coli No. 29; [2]) of 0.2 µg/mL and an MIC (S. marcescens IFO-12648; [3]) of 1.56 µg/mL. It also gave an MIC (M. morganii ATCC-25830) of 0.78 µg/mL.

“7-[2-(2-Formamidothiazol-4-yl)-2-ethoxyiminoacetamido]-3-[(1,3,4-thiadiazol-2-yl)thiomethyl-]-Δ^3 -O-2-isocephem-4-carboxylic acid (syn-isomer) [Example 31]” showed an MIC (K. pneumoniae NCTC-9632) of 0.1 µg/mL, an MIC (P. aeruginosa NCTC-10490) of 25 µg/mL and an MIC (S. aureus FDA-209-p) of 0.39 µg/mL. For the same substance, the MIC (P. mirabilis 1287; [1]) was at most 0.025 µg/mL, the MIC (E. coli No. 29; [2]) was at most 0.025 µg/mL and the MIC (S. marcescens IFO-12648) was 0.39 µg/mL. For the same substance, the MIC (M. morganii ATCC-25830) was 0.05 µg/mL.

“Benzhydryl 7-[2-(2-tritylaminothiazol-4-yl)-2-cyclopropylmethyloxyiminoacetamido-]-3- (1,3,4-thiadiazol-2-yl)thiomethyl]-Δ^3 -O-2-isocephem-4-carboxylate (syn-isomer) [Example 35]” gave an MIC (K. pneumoniae NCTC-9632) of 0.2 µg/mL, an MIC (P. aeruginosa NCTC-10490) of 0.39 µg/mL and an MIC (S. aureus FDA-209-p) of 0.2 µg/mL. It also gave an MIC (P. mirabilis 1287; [1]) of 0.2 µg/mL, an MIC (E. coli No. 29; [2]) of 0.2 µg/mL and an MIC (S. marcescens IFO-12648) of 0.39 µg/mL. The MIC (M. morganii ATCC-25830) was 0.39 µg/mL.

Substance “Benzhydryl 7-[2-(2-tritylaminothiazol-4-yl)-2-[(1-tritylpyrazol-3-yl)methoxyiminoacetamido]-3-[(1,3,4-thiadiazol-2-yl)thiomethyl]-Δ^3 -O-2-isocephem-4-carboxylate (syn-isomer) [Example 23]” has an MIC (K. pneumoniae NCTC-9632) of 0.1 µg/mL, an MIC (P. aeruginosa NCTC-10490) of 12.5 µg/mL and an MIC (S. aureus FDA-209-p) of 6.25 µg/mL. It also gave an MIC (P. mirabilis 1287; [1]) of at most 0.025 µg/mL, an MIC (E. coli No. 29; [2]) of 0.2 µg/mL and an MIC (S. marcescens IFO-12648) of 0.39 µg/mL. For the same substance, the MIC (M. morganii ATCC-25830) was 0.1 µg/mL.

“Benzhydryl 7-[2-(2-formamidothiazol-4-yl)-2-methylthiomethoxyiminoacetamido]-3-[(1,3,4-thiadiazol-2-yl)thiomethyl]-Δ^3 -O-2-isocephem-4-carboxylate (syn-isomer) [Example 44]” was tested, and the MIC (K. pneumoniae NCTC-9632) was 0.39 µg/mL, the MIC (P. aeruginosa NCTC-10490) was 3.13 µg/mL and the MIC (S. aureus FDA-209-p) was 0.39 µg/mL. The MIC (P. mirabilis 1287) was 0.2 µg/mL, the MIC (E. coli No. 29) was 0.2 µg/mL and the MIC (S. marcescens IFO-12648) was 1.56 µg/mL. For the same substance, the MIC (M. morganii ATCC-25830) was 0.78 µg/mL.

“7-[2-(2-Trichloroacetamidothiazol-4-yl)-2-methoxyiminoacetamido]-3-[(carbamoyloxy)methyl]-Δ^3 -O-2-isocephem-4-carboxylic acid (syn-isomer) [Example 7]” gave an MIC (K. pneumoniae NCTC-9632) of 0.2 µg/mL, an MIC (P. aeruginosa NCTC-10490) of 0.78 µg/mL and an MIC (S. aureus FDA-209-p) of 0.78 µg/mL. The MIC (P. mirabilis 1287; [1]) was at most 0.025 µg/mL, the MIC (E. coli No. 29; [2]) was 0.1 µg/mL and the MIC (S. marcescens IFO-12648) was 0.39 µg/mL. The MIC (M. morganii ATCC-25830) was at most 0.025 µg/mL.

“Benzyl 7-[2-(2-trichloroacetamidothiazol-4-yl)-2-methoxyiminoacetamido]-3-[(carbamoyloxy)methyl]-Δ^3 -O-2-isocephem-4-carboxylate (syn-isomer) [Example 5]” gave an MIC (K. pneumoniae NCTC-9632) of 0.1 µg/mL, an MIC (P. aeruginosa NCTC-10490) of 25 µg/mL and an MIC (S. aureus FDA-209-p) of 3.13 µg/mL. For the same substance, the MIC (P. mirabilis 1287; [1]) was at most 0.025 µg/mL, the MIC (E. coli No. 29; [2]) was 0.1 µg/mL and the MIC (S. marcescens IFO-12648; [3]) was 0.2 µg/mL. The MIC (M. morganii ATCC-25830) was 0.05 µg/mL.
